Reference: patent publication US7919532B2, “Hydroxylated aromatic compounds” (Revotar Biopharmaceuticals AG, priority 2005, dated 2011)

How the values were obtained:
[1] = molecular target: T1, human E-Selectin-IgG-chimera (Homo sapiens, UniProt P16581); test: Sialyl Lewis X Tyrosine Sulfate Assay (sLex TSA), E-selectin; design: IgG (chimera partner); conditions: inhibition of binding of sLex-tyrosine sulfate polyacrylamide ligand complex to selectin chimera
Procedure: (§1) Compounds of the present invention are assayed on a molecular level for their ability to inhibit the binding of P-, L-, or E-selectin chimeric molecules to sLe^x and tyrosinesulfate residues linked to a polymeric matrix as a PSGL-1 substitute. Selected IC50-values are determined.
(§2) Microtiter plates are coated overnight in carbonate buffer pH9.6 with goat anti human Fc mAB (10 μg/ml). After washing in assay buffer (25 mM 4-(2-hydroxyethyl)-1-piperazineethanesulfonic acid (HEPES), 150 mM NaCl, 1 mM CaCl2 pH7.4) and blocking (3% bovine serum albumin (BSA) in assay buffer) plates are incubated for 2 h at 37° C. with human P-Selectin-IgG-chimera (0.61 nM respectively 150 ng/mL) or human L-Selectin-IgG-chimera (0.61 nM respectively 89 ng/mL) or human E-Selectin-IgG-chimera (0.61 nM respectively 131 ng/mL). 5 μl of sLe^x-tyrosine sulfate polyacrylamide (1 mg/ml) carrying 15% sLe^x, 10% Tyrosine-sulfate and 5% biotin is complexed with 20 μl Streptavidin-Peroxidase solution (1 mg/ml) and 25 μl assay buffer without CaCl2. For use in the assay, the ligand complex is diluted 1:10000 in assay buffer and further diluted 1:1 with varying amounts of compounds in assay buffer incl. 2% DMSO. This mixture is added to the wells precoated with E- or P-selectin. After incubation for 2 h at 37° C., wells are washed for six times with in assay buffer incl. 0.005% Polyoxyethylenesorbitan monolaurate (TWEEN 20), developed for 10-15 min with 20 μl 3,3′,5,5′-tetramethylbenzidine (TMB)/H2O2 substrate solution and stopped with 20 μl 1M H2SO4. Bound sLe^x-Tyrosine sulfate ligand complex is determined by measuring optical density at 450 nm vs. 620 nm in a Fusion alpha-FP reader (sold from Packard Bioscience, Dreieich, Germany).

[2] = molecular target: T1, human E-Selectin-IgG-chimera; test: Flow chamber assay, cell adhesion and rolling under flow conditions, E-selectin; type: cell-based; conditions: 125 μM compound, HL-60 cells, flow shear 1 dyne/cm^2, dish coated 2.5 μg/ml E-selectin-IgG chimera
Procedure: (§3) Flow Chamber Assay/Cell Adhesion and Rolling Under Flow Conditions
(§4) To assess the capability of compounds to inhibit cell binding under dynamic conditions resembling the flow in a blood vessel, flow chamber assays addressing/testing binding of HL-60 cells/various cell lines to P-selectin, L-selectin and E-selectin chimeric molecules are performed.
(§5) Cell attachment under flow conditions are determined using a parallel flow chamber system. A 35 mm polystyrene culture dish is coated for 1 hour at room temperature with coating buffer (50 mM tris-(hydroxymethyl)aminomethane buffer (Tris), 150 mM NaCl, 2 mM CaCl2; pH 7.4) containing human E- or P-selectin-IgG chimera at concentrations of 2.5 μg/ml or 10 μg/ml, respectively. After removal of the coating solution non specific binding sites are blocked for an additional hour with 1% BSA in coating buffer at room temperature. After washing with assay buffer (“Roswell Park Memorial Institute 1640” (RPMI 1640)+10 mM HEPES) the dish is fitted into a parallel plate laminar flow chamber (sold from Glycotech, Rockville, Md.) and mounted on an inverted phase-contrast microscope (sold from Olympus, Hamburg, Germany) equipped with a CCD camera (JVC) that is connected to a PC. Employing a peristaltic pump (sold from Ismatec, Wertheim-Mondfeld, Germany) the re-circulating system is equilibrated with assay buffer containing 125 μM compound or vehicle control (DMSO). Cells (1 million/ml) are added to the chamber and allowed to distribute for 2 minutes at a high flow rate. The flow rate is then decreased resulting in a calculated flow shear of 1 dyne/cm^2. Video sequences of 10 low power fields are digitally recorded after 5 minutes continuous flow. The percentage of inhibition is calculated from the mean number of cells per field that attached to the coated dish surface in the presence versus absence of compound […].
(§6) Data from Flow Chamber Assay for E- and P-Selectin

[3] = molecular target: T2, human P-Selectin-IgG-chimera (Homo sapiens, UniProt P16109); test: Flow chamber assay, cell adhesion and rolling under flow conditions, P-selectin; type: cell-based; conditions: 125 μM compound, HL-60 cells, flow shear 1 dyne/cm^2, dish coated 10 μg/ml P-selectin-IgG chimera
T2 sequence (P16109 with tags, fused parts or gaps limits assumed): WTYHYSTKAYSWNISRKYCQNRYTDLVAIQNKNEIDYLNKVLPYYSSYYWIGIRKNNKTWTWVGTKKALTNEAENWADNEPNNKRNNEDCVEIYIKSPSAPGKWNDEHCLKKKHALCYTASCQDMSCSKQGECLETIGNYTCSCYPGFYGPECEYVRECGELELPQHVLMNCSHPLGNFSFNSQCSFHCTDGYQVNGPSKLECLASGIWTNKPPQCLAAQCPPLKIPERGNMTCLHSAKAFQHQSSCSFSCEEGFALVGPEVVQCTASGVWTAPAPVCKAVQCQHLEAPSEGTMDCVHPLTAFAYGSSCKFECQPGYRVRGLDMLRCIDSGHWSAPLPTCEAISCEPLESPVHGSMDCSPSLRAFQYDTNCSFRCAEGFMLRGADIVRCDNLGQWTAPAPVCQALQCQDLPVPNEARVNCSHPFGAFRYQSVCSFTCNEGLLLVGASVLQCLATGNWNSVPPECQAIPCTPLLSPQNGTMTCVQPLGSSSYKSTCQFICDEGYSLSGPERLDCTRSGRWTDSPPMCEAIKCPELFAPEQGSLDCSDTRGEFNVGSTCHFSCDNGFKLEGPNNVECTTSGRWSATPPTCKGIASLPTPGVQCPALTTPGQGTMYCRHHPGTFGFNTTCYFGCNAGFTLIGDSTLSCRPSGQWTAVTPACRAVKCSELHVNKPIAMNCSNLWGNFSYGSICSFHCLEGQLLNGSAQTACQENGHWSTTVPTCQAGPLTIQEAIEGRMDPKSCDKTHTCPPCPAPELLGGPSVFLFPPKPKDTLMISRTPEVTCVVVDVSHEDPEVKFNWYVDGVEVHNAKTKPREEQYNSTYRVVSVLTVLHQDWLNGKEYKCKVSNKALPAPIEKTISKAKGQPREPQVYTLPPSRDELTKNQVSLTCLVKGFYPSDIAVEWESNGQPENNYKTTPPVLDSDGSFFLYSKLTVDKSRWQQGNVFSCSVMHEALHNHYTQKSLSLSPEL
Procedure: as §3, §4, §5, §6

[4] = molecular target: T2, human P-Selectin-IgG-chimera; test: Sialyl Lewis X Tyrosine Sulfate Assay (sLex TSA), P-selectin; design: IgG (chimera partner); conditions: inhibition of binding of sLex-tyrosine sulfate polyacrylamide ligand complex to selectin chimera
Procedure: as §1, §2

[5] = molecular target: T3, human L-Selectin-IgG-chimera (Homo sapiens, UniProt P14151); test: Sialyl Lewis X Tyrosine Sulfate Assay (sLex TSA), L-selectin; conditions: inhibition of binding of sLex-tyrosine sulfate polyacrylamide ligand complex to selectin chimera
T3 construct: IgG (chimera partner)
T3 sequence (P14151 with tags, fused parts or gaps limits assumed): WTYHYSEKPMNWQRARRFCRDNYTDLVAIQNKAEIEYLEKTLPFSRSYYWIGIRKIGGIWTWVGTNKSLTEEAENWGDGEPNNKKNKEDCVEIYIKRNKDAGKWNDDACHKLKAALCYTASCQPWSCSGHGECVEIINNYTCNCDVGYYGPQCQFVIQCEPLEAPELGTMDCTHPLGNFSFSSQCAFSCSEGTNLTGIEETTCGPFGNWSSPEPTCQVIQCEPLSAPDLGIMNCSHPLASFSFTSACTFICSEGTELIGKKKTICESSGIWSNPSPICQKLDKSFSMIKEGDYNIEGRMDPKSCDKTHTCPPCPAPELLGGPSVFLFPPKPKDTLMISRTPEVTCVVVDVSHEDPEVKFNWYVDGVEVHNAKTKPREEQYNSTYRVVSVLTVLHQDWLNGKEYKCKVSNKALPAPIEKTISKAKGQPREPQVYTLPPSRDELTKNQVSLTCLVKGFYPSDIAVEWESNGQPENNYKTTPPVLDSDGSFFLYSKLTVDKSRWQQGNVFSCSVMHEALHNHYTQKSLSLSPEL
Procedure: as §1, §2

T1 sequence (P16581 with tags, fused parts or gaps limits assumed): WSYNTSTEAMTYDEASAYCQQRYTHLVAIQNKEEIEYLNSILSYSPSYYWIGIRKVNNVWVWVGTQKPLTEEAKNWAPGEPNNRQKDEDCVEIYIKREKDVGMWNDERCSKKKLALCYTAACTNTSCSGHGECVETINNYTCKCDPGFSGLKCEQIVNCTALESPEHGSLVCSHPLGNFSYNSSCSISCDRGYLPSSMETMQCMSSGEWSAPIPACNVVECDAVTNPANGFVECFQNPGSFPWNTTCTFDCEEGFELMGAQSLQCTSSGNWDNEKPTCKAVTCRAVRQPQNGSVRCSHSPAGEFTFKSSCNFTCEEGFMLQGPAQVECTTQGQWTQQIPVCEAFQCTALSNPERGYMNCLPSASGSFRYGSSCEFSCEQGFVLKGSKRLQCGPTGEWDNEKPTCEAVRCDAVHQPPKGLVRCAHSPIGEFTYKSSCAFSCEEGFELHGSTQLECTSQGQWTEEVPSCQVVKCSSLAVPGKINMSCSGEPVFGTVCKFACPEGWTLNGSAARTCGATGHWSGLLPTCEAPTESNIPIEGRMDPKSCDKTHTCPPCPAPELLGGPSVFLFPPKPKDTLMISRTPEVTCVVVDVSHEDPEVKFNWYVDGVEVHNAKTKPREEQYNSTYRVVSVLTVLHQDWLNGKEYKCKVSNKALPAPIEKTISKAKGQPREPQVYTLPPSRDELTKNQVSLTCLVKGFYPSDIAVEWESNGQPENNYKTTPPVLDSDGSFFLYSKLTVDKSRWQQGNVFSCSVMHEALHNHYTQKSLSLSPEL

Compound	IC50 [1] [µM]	E-Selectin [Ratio]: normalized ratio of %-inhibition of compound divided by %-inhibition of bimosiamose [2] [Ratio]	P-Selectin [Ratio]: normalized ratio of %-inhibition of compound divided by %-inhibition of bimosiamose [3] [Ratio]	IC50 [4] [µM]	IC50 [5] [µM]
O=C(Nc1ccccc1-c1cccs1)c1cccc(-c2c(O)cc(O)cc2O)c1 [Compound 65, 2′,4′,6′-Trihydroxy-biphenyl-3-carboxylic acid (2-thiophen-2-yl-phenyl)-amide]	28.1	1.13	0.99	8.2	15.5
O=C(O)Cc1ccc(-c2ccccc2NC(=O)Cc2c(O)cc(O)cc2O)s1 [Compound 25, (5-{2-[2-(2,4,6-Trihydroxy-phenyl)-acetylamino]-phenyl}-thiophen-2-yl)-acetic acid]	105	0.94	1.65	87.9	95.9
O=C(Cc1c(O)cc(O)cc1O)Nc1cccc(C(=O)O)c1 [Compound 18, 3-[2-(2,4,6-Trihydroxy-phenyl)-acetylamino]-benzoic acid]	41.2	0.80	1.07	37.1	35.1
Cc1oc(-c2ccc(NC(=O)c3cccc(-c4c(O)cc(O)cc4O)c3)cc2)cc1C(=O)O [Compound 60, 2-Methyl-5-{4-[(2′,4′,6′-trihydroxy-biphenyl-3-carbonyl)-amino]-phenyl}-furan-3-carboxylic acid]	7.8	1.05	0.99	5.2	6.1
O=C(O)c1cccc(NC(=O)c2cccc(-c3c(O)cc(O)cc3O)c2)c1 [Compound 67, 3-[(2′,4′,6′-Trihydroxy-biphenyl-3-carbonyl)-amino]-benzoic acid]	27.3	0.79	0.95	23.3	25.2
O=C(O)Cc1ccc(-c2ccccc2NC(=O)c2cccc(-c3c(O)cc(O)cc3O)c2)s1 [Compound 63, (5-{2-[(2′,4′,6′-Trihydroxy-biphenyl-3-carbonyl)-amino]-phenyl}-thiophen-2-yl)-acetic acid]	21.9	1.23	0.87	17.4	17.4
O=C(Nc1cccc(C(F)(F)F)c1)c1cccc(-c2c(O)cc(O)cc2O)c1 [Compound 66, 2′,4′,6′-Trihydroxy-biphenyl-3-carboxylic acid (3-trifluoromethyl-phenyl)-amide]		1.47	1.19		
O=C(Nc1ccccc1-c1ccc(C(=O)O)s1)c1cccc(-c2c(O)cc(O)cc2O)c1 [Compound 26, 5-{2-[(2′,4′,6′-trihydroxy-biphenyl-3-carbonyl)-amino]-phenyl}-thiophene-2-carboxylic acid]	33.3	1.11	0.77	27.8	28.2
O=C(O)Cc1cccc(-c2cc(CCCCCCc3ccc(O[C@H]4O[C@H](CO)[C@@H](O)[C@H](O)[C@@H]4O)c(-c4cccc(CC(=O)O)c4)c3)ccc2O[C@H]2O[C@H](CO)[C@@H](O)[C@H](O)[C@@H]2O)c1 [Bimosiamose, bimosiamose, reference compound]					> 500
Cc1oc(-c2ccc(NC(=O)Cc3c(O)cc(O)cc3O)cc2)cc1C(=O)O [Compound 19, 2-Methyl-5-{4-[2-(2,4,6-trihydroxy-phenyl)-acetylamino]-phenyl}-furan-3-carboxylic acid]	12.4	0.75	1.27	20.7	22.1
O=C(O)Cc1ccc(-c2cccc(NC(=O)c3cccc(-c4c(O)cc(O)cc4O)c3)c2)s1 [Compound 64, (5-{3-[(2′,4′,6′-trihydroxy-biphenyl-3-carbonyl)-amino]-phenyl}-thiophen-2-yl)-acetic acid]	5.7	1.06	1.23	6	6.3
